One substance from patent US20150374705A1, “Substances for treatment or relief of pain” (Shanghai Institues for Biological Sciences, priority 2012, published 2015) can be followed below.

Holding throughout (format): in vivo
The subject of data set [1] is CFA induced inflammatory pain model rats (mechanical pain). The data set can be described thus: CFA induced inflammatory pain model, mechanical pain threshold. To be noted: rat, spinal injection the day before CFA, measured every day.
Data set [2] deals with α5 subunit protein of GABAA receptor in dorsal root ganglion. Nature of the data set: Knock-down of α5 subunit of GABAA receptor in dorsal root ganglion, western blot. Particulars: rat, intrathecal injection. The method, then:
In western blot experiment, obtained dorsal root ganglion was lysed in RIPA (50 mM Tris (pH7.4), 150 mM NaCl, 1% Triton X-100, 1% sodium deoxycholate, 0.1% SDS as well as sodium orthovanadate, sodium fluoride, EDTA and leupeptin. The proteins were boiled at 100° C. for 5 minutes for denaturation. 10-20 μl samples were added into the prepared channels after the protein samples became cool. Then, electrophoresis was conducted at 60 V for 30 minutes. After the samples passed the boundary between the upper layer gel and the lower layer gel, the voltage was adjusted to 90 V until bromophenol blue reached the lower edge of the lower layer gel. After electrophoresis, the SDS gel that contained target bands was cut for transferring. Through electric transferring, the negative charged proteins were transferred to positive charged PVDF membrane. The blocking buffer that contained 5% skim milk powder was used to block the membrane for 1 hour to reduce unspecific binding. Then, the PVDF membrane was immersed in the blocking buffer containing primary antibody and incubated overnight at 4° C. or 1-2 hours at room temperature. […] Finally, PVDF membrane was incubated with the substrate of horse radish peroxidase ECL-PLUS for 5 minutes in dark to produce fluorescence signal. Then X-ray film was used to capture the fluorescence signal on PVDF membrane. […]

In data set [3] the test system is SNI model rats (neuropathic pain). Nature of the data set: Spared nerve injury (SNI) model, neuropathic pain, mechanical pain threshold. Particulars: rat, intrathecal injection 7 days after SNI, threshold at 9-17 days. Here is the method:
Male SD rats (200-250 g) were used, 6 per group in the cage. All the animals were placed under 12 hours light/cycle (i.e. 12 hours light and 12 hours dark in each day), free to food and water. All the experiments were conducted under the condition that the observers were blind to pharmaceutical treatment.
Spared nerve injury model (SNI): 10% chloral hydrate was injected intraperitoneally to anesthetize rats. […] The muscle was longitudinally separated to expose the core of sciatic nerve and the branching below: tibial nerve, common peroneal nerve and sural nerve. The tibial nerve and common peroneal nerve were ligatured and cut and small sural nerve was retained, meanwhile preventing any injury. The muscle and skin were sutured layer by layer, and then antibiotics were injected intraperitoneally for antibacterial purpose. For detailed methods, please refer to Decosterd I and Woolf C J. Spared nerve injury: an animal model of persistent peripheral neuropathic pain. 2000 August; Pain 87(2):149-58.
Method for detecting mechanical hyperalgesia in rats: firstly CFA solution was injected in the thenar of rats. After 24 hours, mechanical hyperalgesia quantitative detection was adopted to measure the paw withdrawal of rats to normal and harmless mechanical stimulation. Evaluation was conducted according to reference (Chaplan S R et al., Quantitative assessment of tactile allodynia in the rat paw. J Neurosci Methods. 1994 July; 53(1):55-63). In this method, the von Frey fibers with different bending force (equivalent to the range of 1-50 g force) were used to apply harmless mechanical stimulation. The rats were placed in organic glass box with metal mesh plate, and the von Frey fibers were applied on the surface of leg thenar. The von Frey fibers were applied vertically to the surface of thenar to generate the force that will trigger slight resistance to the leg. 2-3 seconds were maintained for every leg thenar. If the leg withdrew suddenly, positive records were recorded. The threshold was the mean of the weight that caused 50% paw withdrawal response (5-6 paw withdrawal/10 stimulations) in overall 10 stimulations.
Compounds MRK 016, C2, C3, C4, C5, C6, C7, C8 or α5IA (A5I) were dissolved in 70% PGE400 (PGE400:water=70:30 in volume). For injection dose, MRK016 was 2 mg/kg body weight; A5I was 3 mg/kg body weight; C2, C3, C4, C5, C6, C7 and C8 were 3 mg/kg body weight.
MRK016-M3 was dissolved in 90% PGE400 (PGE400:water=90:10 in volume). The doses were 10 mg/kg, 3 mg/kg, 1 mg/kg and 0.3 mg/kg, respectively for oral administration.
The method for behavioral data statistics was unpaired t-test. *, p<0.05, represents significant difference.

Data set [4] concerns CFA induced inflammatory pain model rats (heat pain). Nature of the data set: CFA induced inflammatory pain model, heat pain threshold. Particulars: rat, spinal injection the day before CFA, measured every day.

For the substance “siRNA specific to the mRNA of α5-GABAA receptor: siRNA, sequence 5′GGUGCGAACAGACAUCUAUTT 3′ (chemistry not given here)”, the “Mechanical pain threshold after siRNA” value in data set [1] is given as “inhibit the inflammatory pain efficiently”. Further, the “Expression of the α5 subunit of GABAA receptor in dorsal root ganglion” value in data set [2] is listed as “significantly knocked-out the expression”. The “Pain threshold in SNI model after siRNA” value in data set [3] is recorded as “significantly elevated pain threshold”. Moreover, in data set [4], the “Heat pain threshold after siRNA” value was “inhibit the inflammatory pain efficiently”.
